Target: T1, Orexin receptor type 2 (Homo sapiens, UniProt O43614)
T1 sequence (O43614 whole entry): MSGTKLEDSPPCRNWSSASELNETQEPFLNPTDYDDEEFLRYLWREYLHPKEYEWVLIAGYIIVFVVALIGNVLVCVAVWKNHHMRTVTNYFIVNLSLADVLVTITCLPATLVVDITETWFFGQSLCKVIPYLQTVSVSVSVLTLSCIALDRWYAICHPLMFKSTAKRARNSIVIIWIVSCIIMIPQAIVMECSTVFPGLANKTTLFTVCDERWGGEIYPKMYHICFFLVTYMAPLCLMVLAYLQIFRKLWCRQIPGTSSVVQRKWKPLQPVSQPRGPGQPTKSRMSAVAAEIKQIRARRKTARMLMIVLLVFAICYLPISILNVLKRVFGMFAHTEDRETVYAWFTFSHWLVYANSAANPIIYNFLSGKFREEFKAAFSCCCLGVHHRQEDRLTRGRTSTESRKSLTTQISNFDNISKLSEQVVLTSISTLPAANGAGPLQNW
Assay: Agonist activity against human orexin 2 receptor; EC50; nM
Format: functional

Molecule	EC50
CC[C@H](C)[C@H](NC(=O)[C@H](CC(C)C)NC(=O)[C@@H](NC(=O)[C@H](N)CCSC)[C@@H](C)O)C(=O)NCC(=O)N[C@@H](C)C(=O)N[C@@H](C)C(=O)N[C@@H](Cc1c[nH]cn1)C(=O)N[C@@H](CC(N)=O)C(=O)NCC(=O)N[C@@H](CO)C(=O)N[C@@H](C)C(=O)N[C@@H](CCC(N)=O)C(=O)N[C@@H](CC(C)C)C(=O)N[C@@H](CC(C)C)C(=O)N[C@@H](CCCN=C(N)N)C(=O)N[C@@H](CCC(N)=O)C(=O)N[C@@H](CC(C)C)C(=O)N[C@@H](CCCN=C(N)N)C(=O)NCC(=O)N[C@@H](CCC(N)=O)C(=O)N[C@@H](CC(C)C)C(=O)NCC(=O)N1CCC[C@H]1C(=O)N1CCC[C@H]1C(=O)NCC(=O)N[C@@H](CO)C(=O)N[C@@H](CCCN=C(N)N)C(N)=O	> 290 nM
H-MTLIGAAHNGSGQLLRQLRGQLGPPGSR-NH2	0.091 nM
CC[C@H](C)[C@H](NC(=O)[C@H](CC(C)C)NC(=O)[C@@H](NC(=O)[C@@H](N)CCSC)[C@@H](C)O)C(=O)NCC(=O)N[C@@H](C)C(=O)N[C@@H](C)C(=O)N[C@@H](Cc1c[nH]cn1)C(=O)N[C@@H](CC(N)=O)C(=O)NCC(=O)N[C@@H](CO)C(=O)N[C@@H](C)C(=O)N[C@@H](CCC(N)=O)C(=O)N[C@@H](CC(C)C)C(=O)N[C@@H](CC(C)C)C(=O)N[C@@H](CCCN=C(N)N)C(=O)N[C@@H](CCC(N)=O)C(=O)N[C@@H](CC(C)C)C(=O)N[C@@H](CCCN=C(N)N)C(=O)NCC(=O)N[C@@H](CCC(N)=O)C(=O)N[C@@H](CC(C)C)C(=O)N[C@@H](C)C(=O)N1CCC[C@H]1C(=O)N1CCC[C@H]1C(=O)NCC(=O)N[C@@H](CO)C(=O)N[C@@H](CCCN=C(N)N)C(N)=O	0.12 nM
CC[C@H](C)[C@H](NC(=O)[C@H](CC(C)C)NC(=O)[C@@H](NC(=O)[C@@H](N)CCSC)[C@@H](C)O)C(=O)NCC(=O)N[C@@H](C)C(=O)N[C@@H](C)C(=O)N[C@@H](Cc1c[nH]cn1)C(=O)N[C@@H](CC(N)=O)C(=O)NCC(=O)N[C@@H](CO)C(=O)N[C@@H](C)C(=O)N[C@@H](CCC(N)=O)C(=O)N[C@@H](CC(C)C)C(=O)N[C@@H](CC(C)C)C(=O)N[C@@H](CCCN=C(N)N)C(=O)N[C@@H](CCC(N)=O)C(=O)N[C@@H](CC(C)C)C(=O)N[C@@H](CCCN=C(N)N)C(=O)NCC(=O)N[C@@H](CCC(N)=O)C(=O)N[C@@H](CC(C)C)C(=O)N[C@H](C)C(=O)N1CCC[C@H]1C(=O)N1CCC[C@H]1C(=O)NCC(=O)N[C@@H](CO)C(=O)N[C@@H](CCCN=C(N)N)C(N)=O	0.2 nM
CC[C@H](C)[C@H](NC(=O)[C@H](CC(C)C)NC(=O)[C@H](NC(=O)[C@@H](N)CCSC)[C@@H](C)O)C(=O)NCC(=O)N[C@@H](C)C(=O)N[C@@H](C)C(=O)N[C@@H](Cc1cnc[nH]1)C(=O)N[C@@H](CC(N)=O)C(=O)NCC(=O)N[C@@H](CO)C(=O)N[C@@H](C)C(=O)N[C@@H](CCC(N)=O)C(=O)N[C@@H](CC(C)C)C(=O)N[C@@H](CC(C)C)C(=O)N[C@@H](CCCN=C(N)N)C(=O)N[C@@H](CCC(N)=O)C(=O)N[C@@H](CC(C)C)C(=O)N[C@@H](CCCN=C(N)N)C(=O)NCC(=O)N[C@@H](CCC(N)=O)C(=O)N[C@@H](CC(C)C)C(=O)NCC(=O)N1CCC[C@H]1C(=O)N1CCC[C@H]1C(=O)NCC(=O)N[C@@H](CO)C(=O)N[C@@H](CCCN=C(N)N)C(N)=O	> 260 nM
CC[C@H](C)[C@H](NC(=O)[C@@H](CC(C)C)NC(=O)[C@@H](NC(=O)[C@@H](N)CCSC)[C@@H](C)O)C(=O)NCC(=O)N[C@@H](C)C(=O)N[C@@H](C)C(=O)N[C@@H](Cc1cnc[nH]1)C(=O)N[C@@H](CC(N)=O)C(=O)NCC(=O)N[C@@H](CO)C(=O)N[C@@H](C)C(=O)N[C@@H](CCC(N)=O)C(=O)N[C@@H](CC(C)C)C(=O)N[C@@H](CC(C)C)C(=O)N[C@@H](CCCN=C(N)N)C(=O)N[C@@H](CCC(N)=O)C(=O)N[C@@H](CC(C)C)C(=O)N[C@@H](CCCN=C(N)N)C(=O)NCC(=O)N[C@@H](CCC(N)=O)C(=O)N[C@@H](CC(C)C)C(=O)NCC(=O)N1CCC[C@H]1C(=O)N1CCC[C@H]1C(=O)NCC(=O)N[C@@H](CO)C(=O)N[C@@H](CCCN=C(N)N)C(N)=O	> 200 nM
H-MTLIGAAHNGSAALLRQLRGQLGPPGSR-NH2	0.13 nM
CC[C@H](C)[C@H](NC(=O)[C@H](CC(C)C)NC(=O)[C@@H](NC(=O)[C@@H](N)CCSC)[C@@H](C)O)C(=O)NCC(=O)N[C@@H](C)C(=O)N[C@@H](C)C(=O)N[C@@H](Cc1cnc[nH]1)C(=O)N[C@@H](CC(N)=O)C(=O)NCC(=O)N[C@@H](CO)C(=O)N[C@@H](C)C(=O)N[C@@H](CCC(N)=O)C(=O)N[C@@H](CC(C)C)C(=O)N[C@H](CC(C)C)C(=O)N[C@@H](CCCN=C(N)N)C(=O)N[C@@H](CCC(N)=O)C(=O)N[C@@H](CC(C)C)C(=O)N[C@@H](CCCN=C(N)N)C(=O)NCC(=O)N[C@@H](CCC(N)=O)C(=O)N[C@@H](CC(C)C)C(=O)NCC(=O)N1CCC[C@H]1C(=O)N1CCC[C@H]1C(=O)NCC(=O)N[C@@H](CO)C(=O)N[C@@H](CCCN=C(N)N)C(N)=O	0.44 nM
CC[C@H](C)[C@H](NC(=O)[C@H](CC(C)C)NC(=O)[C@@H](NC(=O)[C@@H](N)CCSC)[C@@H](C)O)C(=O)NCC(=O)N[C@H](C)C(=O)N[C@@H](C)C(=O)N[C@@H](Cc1c[nH]cn1)C(=O)N[C@@H](CC(N)=O)C(=O)NCC(=O)N[C@@H](CO)C(=O)N[C@@H](C)C(=O)N[C@@H](CCC(N)=O)C(=O)N[C@@H](CC(C)C)C(=O)N[C@@H](CC(C)C)C(=O)N[C@@H](CCCN=C(N)N)C(=O)N[C@@H](CCC(N)=O)C(=O)N[C@@H](CC(C)C)C(=O)N[C@@H](CCCN=C(N)N)C(=O)NCC(=O)N[C@@H](CCC(N)=O)C(=O)N[C@@H](CC(C)C)C(=O)NCC(=O)N1CCC[C@H]1C(=O)N1CCC[C@H]1C(=O)NCC(=O)N[C@@H](CO)C(=O)N[C@@H](CCCN=C(N)N)C(N)=O	14 nM
H-MTLIGAAHNGSAQLLRQLRGQLGPPGSA-NH2	0.2 nM
H-MTLIGGAHNGSAQLLRQLRGQLGPPGSR-NH2	0.84 nM
CC[C@H](C)[C@H](NC(=O)[C@H](CC(C)C)NC(=O)[C@@H](NC(=O)[C@@H](N)CCSC)[C@@H](C)O)C(=O)NCC(=O)N[C@@H](C)C(=O)N[C@@H](C)C(=O)N[C@@H](Cc1cnc[nH]1)C(=O)N[C@@H](CC(N)=O)C(=O)NCC(=O)N[C@@H](CO)C(=O)N[C@@H](C)C(=O)N[C@@H](CCC(N)=O)C(=O)N[C@@H](CC(C)C)C(=O)N[C@@H](CC(C)C)C(=O)N[C@@H](CCCN=C(N)N)C(=O)N[C@@H](CCC(N)=O)C(=O)N[C@@H](CC(C)C)C(=O)N[C@@H](CCCN=C(N)N)C(=O)NCC(=O)N[C@H](CCC(N)=O)C(=O)N[C@@H](CC(C)C)C(=O)NCC(=O)N1CCC[C@H]1C(=O)N1CCC[C@H]1C(=O)NCC(=O)N[C@@H](CO)C(=O)N[C@@H](CCCN=C(N)N)C(N)=O	0.32 nM
CC[C@H](C)[C@H](NC(=O)[C@H](CC(C)C)NC(=O)[C@@H](NC(=O)[C@@H](N)CCSC)[C@@H](C)O)C(=O)NCC(=O)N[C@@H](C)C(=O)N[C@@H](C)C(=O)N[C@@H](Cc1c[nH]cn1)C(=O)N[C@@H](CC(N)=O)C(=O)NCC(=O)N[C@@H](CO)C(=O)N[C@@H](C)C(=O)N[C@@H](CCC(N)=O)C(=O)N[C@@H](CC(C)C)C(=O)N[C@@H](CC(C)C)C(=O)N[C@@H](CCCN=C(N)N)C(=O)N[C@@H](CCC(N)=O)C(=O)N[C@@H](CC(C)C)C(=O)N[C@@H](CCCN=C(N)N)C(=O)NCC(=O)N[C@@H](CCC(N)=O)C(=O)N[C@@H](CC(C)C)C(=O)NCC(=O)N1CCC[C@H]1C(=O)N1CCC[C@H]1C(=O)NCC(=O)N[C@H](CO)C(=O)N[C@@H](CCCN=C(N)N)C(N)=O	0.15 nM
CC[C@H](C)[C@H](NC(=O)[C@H](CC(C)C)NC(=O)[C@@H](NC(=O)[C@@H](N)CCSC)[C@@H](C)O)C(=O)NCC(=O)N[C@@H](C)C(=O)N[C@@H](C)C(=O)N[C@@H](Cc1c[nH]cn1)C(=O)N[C@@H](CC(N)=O)C(=O)NCC(=O)N[C@@H](CO)C(=O)N[C@@H](C)C(=O)N[C@@H](CCC(N)=O)C(=O)N[C@@H](CC(C)C)C(=O)N[C@@H](CC(C)C)C(=O)N[C@@H](CCCN=C(N)N)C(=O)N[C@@H](CCC(N)=O)C(=O)N[C@@H](CC(C)C)C(=O)N[C@@H](CCCN=C(N)N)C(=O)N[C@@H](C)C(=O)N[C@@H](CCC(N)=O)C(=O)N[C@@H](CC(C)C)C(=O)NCC(=O)N1CCC[C@H]1C(=O)N1CCC[C@H]1C(=O)NCC(=O)N[C@@H](CO)C(=O)N[C@@H](CCCN=C(N)N)C(N)=O	0.2 nM
H-MTLIGAGHNGSAQLLRQLRGQLGPPGSR-NH2	0.27 nM
H-MTLIGAAHNGSAQLLRQLRGALGPPGSR-NH2	0.46 nM
CC[C@H](C)[C@H](NC(=O)[C@H](CC(C)C)NC(=O)[C@@H](NC(=O)[C@@H](N)CCSC)[C@@H](C)O)C(=O)NCC(=O)N[C@@H](C)C(=O)N[C@H](C)C(=O)N[C@@H](Cc1cnc[nH]1)C(=O)N[C@@H](CC(N)=O)C(=O)NCC(=O)N[C@@H](CO)C(=O)N[C@@H](C)C(=O)N[C@@H](CCC(N)=O)C(=O)N[C@@H](CC(C)C)C(=O)N[C@@H](CC(C)C)C(=O)N[C@@H](CCCN=C(N)N)C(=O)N[C@@H](CCC(N)=O)C(=O)N[C@@H](CC(C)C)C(=O)N[C@@H](CCCN=C(N)N)C(=O)NCC(=O)N[C@@H](CCC(N)=O)C(=O)N[C@@H](CC(C)C)C(=O)NCC(=O)N1CCC[C@H]1C(=O)N1CCC[C@H]1C(=O)NCC(=O)N[C@@H](CO)C(=O)N[C@@H](CCCN=C(N)N)C(N)=O	2.6 nM
H-MTLIGAAHNGSAQLLRQLAGQLGPPGSR-NH2	0.77 nM
H-MTLIGAAHNGSAQLLRQWRGQLGPPGSR-NH2	0.15 nM
H-MTLIGAAHNGSAQLLRQLRGQAGPPGSR-NH2	0.12 nM
